Columns and labels:
serotonin = assay: Test 74 - Antiserotonin (in vitro), isolated ileal segments; format: cell-based, guinea pig; conditions: Cavia porcellus, contractile response to serotonin (1 mcg/ml); for inhibition at 1 µg/mL: Dose 1 γ/ml
Text: Test 74 - Antiserotonin (in vitro):

[1] = tested on: skin taken from a "nude" mouse
Procedure: (§1) This study was carried out by "in vitro" tests using a skin diffusion cell apparatus consisting of two glass segments separated by a layer of skin taken from a "nude" mouse, genetically without hair. Suspensions of the substance to be tested are deposited on the stratum corneum of the skin. The dermic layer dips into a buffer solution from which withdrawals are made at intervals to determine the quantity of substance which has passed through the epidermis.
(§2) 1-dodecylazacycloheptan-2-one (azone) is used as reference standard.
(§3) Suspensions at the required concentrations (0.5 and 1% w/v) are then prepared by ultrasonic treatment three times for 30 seconds in an ice bath with a titanium-tipped ultrasonic generator. The pHs of the 1 % suspensions in 0.1 M pH 7.0 phosphated buffer are as follows:
(§4) The volume of examined suspension applied externally to the skin is 1 ml. The volume of buffer solution in the cell lower chamber is 10 ml. After each withdrawal of 1 ml of solution from the lower chamber, the volume was made up to 10 ml by adding buffer.

[2] = tested on: skin taken from a "nude" mouse; assay: skin permeability test in vitro, skin diffusion cell apparatus, passage of naproxen-Na; conditions: naproxen-Na passage with facilitating substance at 0.5%, second set
Procedure: as §1, §2, §3, §4

histamine = assay: Test 73 - Antihistaminic (in vitro), isolated ileal segments; format: cell-based, guinea pig; conditions: Cavia porcellus, contractile response to histamine (0.5 mcg/ml)
Text: Test 73 - Antihistaminic (in vitro):
Inhibition of submaximal contractile responses of isolated guinea pig ileal segments, bathed in physiological salt solution, to histamine (0.5 mcg/ml) by more than 80 percent (>80) indicates activity.

LTD4 = assay: Test 37 - LTD4 antagonist (in vitro), isolated ileal segments; format: cell-based, guinea pig; conditions: Cavia porcellus, contractile response to LTD4 (10 ng/ml)
Text: Test 37 - LTD4 antagonist (in vitro):

Question: How did the inhibition at 1 µg/mL (serotonin) turn out when `CN1CCC(=C2c3ccccc3C=Cc3ccccc32)CC1` [Cyproheptadine, reference compound] was run?
Answer: The inhibition at 1 µg/mL was 85%.

Question: Which “results compared with the compound of Example 3” value [1] does the source give for `CCCCCCCCCCCCN1CCSCC1` [Example 1, 4-dodecylthiomorpholine] here?
Answer: Its value is “practically equal results”.

Question: With `CCCCCCCCCCCCN1CC[S+]([O-])CC1` [Example 2, 4-dodecylthiomorpholine-1-oxide] as the molecule, how does the “F.U.a. 355.5 nm” value ([2]; 3.0 hours) read?
Answer: Its value is 0.143 F.U.a.

Question: What about the nmoles passed ([2]; 3.0 hours) of the same molecule?
Answer: Its nmoles passed is 366.0 nmol.

Question: And the “F.U.a. 355.5 nm” value ([2]; 5.0 hours)?
Answer: Its value is 0.426 F.U.a.

Question: What about the nmoles passed ([2]; 5.0 hours) of the same molecule?
Answer: Its nmoles passed is 1093.0 nmol.

Question: And the “F.U.a. 355.5 nm” value ([2]; 7.0 hours)?
Answer: Its value is 0.755 F.U.a.

Question: And the nmoles passed ([2]; 7.0 hours)?
Answer: The nmoles passed was 1968.0 nmol.

Question: What about the “F.U.a. 355.5 nm” value ([2]; […]) of the same molecule?
Answer: The value was 0.033 F.U.a.

Question: What about the nmoles passed ([2]; […]) of the same molecule?
Answer: Its nmoles passed is 82.5 nmol.

Question: Which inhibition at 1 µg/mL (histamine; Dose 1 γ/ml) does the source give for `CCCCCCCCCC(=O)N1CCSCC1` [Example 5, 4-decanoylthiomorpholide] here?
Answer: The inhibition at 1 µg/mL was 18%.

Question: What about the inhibition at 2.5 µg/mL (histamine; Dose 2.5 γ/ml) of the same molecule?
Answer: The inhibition at 2.5 µg/mL was 82%.

Question: What about the inhibition at 10 µg/mL (histamine; Dose 10 γ/ml) of the same molecule?
Answer: The inhibition at 10 µg/mL was 100%.

Question: And the inhibition at 0.5 µg/mL (serotonin; Dose 0.5 γ/ml)?
Answer: Its inhibition at 0.5 µg/mL is 68%.

Question: What about the inhibition at 1 µg/mL (serotonin) of the same molecule?
Answer: Its inhibition at 1 µg/mL is 100%.

Question: What about the inhibition at 2.5 µg/mL (serotonin; Dose 2.5 γ/ml) of the same molecule?
Answer: The inhibition at 2.5 µg/mL was 100%.

Question: And the inhibition at 10 µg/mL (serotonin; Dose 10 γ/ml)?
Answer: Its inhibition at 10 µg/mL is 100%.

Question: And the inhibition at 4 µg/mL (LTD4; Dose 4 γ/ml)?
Answer: Its inhibition at 4 µg/mL is 28%.

Question: What about the inhibition at 8 µg/mL (LTD4; Dose 8 γ/ml) of the same molecule?
Answer: Its inhibition at 8 µg/mL is 75%.

— EP0314008A2, “N-substituted aliphatic heterocyclic compounds able to facilitate the passage of active substances through physiological barriers” (priority 1987, dated 1989)
